Experiments:
Type in all cases: in vivo
[1] = tested on: diamondback moth (Plutella xylostella); assay: Test A: control of diamondback moth on radish plant, foliar spray; settings: sprayed at 50 ppm; neonate larvae on radish; assessed after 6 days; replicated three times
Procedure, shortened: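 Radish plants 12–14 days old, pre-infested with about 50 neonate larvae, were sprayed with compound at 50 ppm in 10% acetone/water with 300 ppm X-77 surfactant, in three replicates. Units were held 6 days at 25 °C and 70% RH. Feeding damage was assessed visually and mortality was counted.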

[2] = tested on: western flower thrips (Frankliniella occidentalis); assay: Test E: control of western flower thrips on Soleil bean plant, contact and/or systemic; settings: adult thrips, assessed after 6 days, replicated three times
Procedure, shortened: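 A 5-7 day old Soleil bean plant was sprayed with compound at 250 or 50 ppm in 10% acetone/water with 300 ppm X-77 surfactant, dried 1 hour, then infested with 22-27 adult thrips. After 6 days at 25° C., 45-55% relative humidity, mortality and plant damage were rated; three replicates.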

[3] = tested on: fall armyworm (Spodoptera frugiperda); assay: Test B: control of fall armyworm on corn (maize) plant, foliar spray; settings: sprayed at 50 ppm; 1-day-old larvae on corn; replicated three times
Procedure, shortened: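 Corn plants 4–5 days old were infested with 10–15 one-day-old fall armyworm larvae. They were then sprayed at 50 ppm in 10% acetone/water with 300 ppm non-ionic surfactant, three replicates. After 6 days at 25 °C and 70% RH, feeding damage was assessed visually and mortality rated.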

| Structure (SMILES) | control efficacy (feeding damage or mortality): very good to excellent levels [1] | control efficacy (feeding damage or mortality): very good to excellent levels ([2]; sprayed at 50 ppm) | control efficacy (feeding damage or mortality): very good to excellent levels ([2]; sprayed at 250 ppm) | control efficacy (feeding damage or mortality): very good to excellent levels [3] |
| --- | --- | --- | --- | --- |
| CS(=N)(=O)CCNC(=O)c1ccc(C2=NOC(c3cc(Cl)cc(Cl)c3)(C(F)(F)F)C2)c2ccccc12 (centres unmarked) [Compound 94] | 20% or less feeding damage or 80% or more mortality | 20% or less feeding damage or 80% or more mortality | 20% or less feeding damage or 80% or more mortality | 20% or less feeding damage or 80% or more mortality |
| CNC(=O)[C@H]1CCCN1C(=O)c1ccc(C2=NOC(c3cc(Cl)cc(Cl)c3)(C(F)(F)F)C2)c2ccccc12 (some centres unmarked) [Compound 104] | 20% or less feeding damage or 80% or more mortality | 20% or less feeding damage or 80% or more mortality | 20% or less feeding damage or 80% or more mortality | 20% or less feeding damage or 80% or more mortality |

— patent publication US9095138B2, “Isoxazoline insecticides” (E.I. du Pont de Nemours and Company, priority 2007, dated 2015)
